pEC50, pIC50, pKi: −log10 of the molar value. Entries after “also recorded” stand apart in the source; their conditions may differ. Like-named read-outs stand apart in the source and are kept apart here.

The target of data set [1] is T1, rhodesain (Trypanosoma brucei rhodesiense, UniProt Q95PM0).
T1 construct: made in house; host or cells: Pichia pastoris
The data set can be described thus: Hydrolysis assay UV-Vis (ester hydrolysis by rhodesain). Type of data set: biochemical. How it is done: Since the esters and the free carboxylic acid have different UV-Vis characteristics, we recorded time-dependent absorbance spectra at 400 nm (Figure 9).
Figure 9 Kinetic analysis of the ester hydrolysis by rhodesain. […]
Hydrolysis assay – UV-Vis:
To a solution of rhodesain (10 μg/mL) in 197.5 μL reaction buffer (50 mM sodium acetate, pH 5.5,
(20 mM) was added and the absorbance was monitored for 2 h at 25 °C with a Tecan Spark 10M (λabs: […]

Data set [2] addresses T2, cathepsin L (Homo sapiens, UniProt P07711). Description: Fluorometric cathepsin L inhibition assay (Cbz-Phe-Arg-AMC). Type of data set: biochemical. Further details: purchased Calbiochem, Merck Millipore.
For a further data set, the target named is T3, cathepsin B (Homo sapiens, UniProt P07858).
T3 construct: purchased Calbiochem, Merck Millipore
Description: Fluorometric cathepsin B inhibition assay (Cbz-Phe-Arg-AMC). The note with it: read-out: Cath. B Ki. In kind it is biochemical.

Data set [3] has as its target T2, cathepsin L. Description: Dilution assay (reversibility), cathepsin L. The note with it: 5×IC50, 15 min incubation, 50-fold dilution.
Description: Then, the mixture was diluted by 50-fold to yield a final inhibitor concentration of 10% of the IC50 concentration.
Fluorometric assays for cathepsin B and cathepsin L (Calbiochem, Merck
Millipore) were performed as described previously.[7,8] Cbz-Phe-Arg-AMC was used as substrate
(final conc.: 100 μM for cathepsin B, 6.5 μM for cathepsin L) in assay buffer (50 mM Tris, pH 6.5,
Recombinantly expressed rhodesain (0.9 mg/mL) or cathepsin L (Calbiochem, Merck Millipore) were
diluted 1:100 in enzyme buffer (rhodesain: 50 mM sodium acetate, pH 5.5, 5 mM EDTA, 200 mM
NaCl and 2 mM DTT; cathepsin L: 50 mM Tris, pH 6.5, 5 mM EDTA, 200 mM NaCl and 2 mM DTT)
and preincubated for 1 h at room temperature. 54 μL of the respective enzyme solution was treated
enzyme-inhibitor reactions were incubated for 15 min at room temperature to ensure complete
inhibition. 1.2 μL of each reaction mixture was diluted with 57.3 μL of the respective assay buffer
(rhodesain: 50 mM sodium acetate, pH 5.5, 5 mM EDTA, 200 mM NaCl, 0.005% Brij; cathepsin L:
Phe-Arg-AMC in DMSO (final conc.: 10 μM for rhodesain, 6.5 μM for cathepsin L) and monitored
with a Tecan Infinite M200 Pro plate reader (λ ex: 380 nm/λ em: 460 nm).
Data set [4] deals with T1, rhodesain. The data set can be described thus: biochemical. The note with it: read-out: Rhod. Ki. In kind it is biochemical.
Data set [5] deals with T. b. brucei 449 cell line. The data set can be described thus: T. b. brucei cell survival assay (ATPlite). In kind it is cell-based. The note with it: Trypanosoma brucei, 48 h; read-out: EC50 antitrypanosomal activity. How it is done: Benzyl ester 2 was tested for its antitrypanosomal activity as described previously.
5. T. b. brucei cell survival assay
Toxicity of 2 against trypanosomes ( T. b. brucei 449 cell line) were determined via an ATPlite assay as described previously[13–15] using the cellular ATP levels as a proxy for cell viability. 2 (5 mM stock solution in DMSO) was first diluted 1:3 in medium, followed by a 1:10 dilution step in a microplate and ten subsequent 1:2 dilution steps. 90 μL HMI-9 medium containing 2500 cells/mL were distributed in 96-well microplates (PerkinElmer). 10 μL of the 1:2 dilution step preparations of the tested compounds were added to the 90 μL cell suspension leading to final concentrations from 16.67 μM to 32.55 nM in the microplates. As a negative control, addition of 0.3% of DMSO corresponding to the highest DMSO concentration added by compound application was used. 10% DMSO was used as a positive control, since at this DMSO concentration, all cells die. […] 50 μL of ATPlite 1 step solution (PerkinElmer) was added to each well of the microplate and luminescence measured at room temperature with an Infinite® M200 PRO plate reader (Tecan Trading AG). The measured values were plotted against the compound concentrations top yield the dose-response curve. The EC 50 values were calculated using GraFit version 5.013 (Erithacus Software Ltd.).
Background: In ATP-based viability assays light output follows the ATP content of the culture.

For data set [6], the target named is T4, NS3/NS2B protease of the Dengue virus (DENV PR) (Dengue virus type 2, UniProt P29990).
T4 construct: the NS3/NS2B protease of the Dengue virus (DENV PR)
The data set can be described thus: Fluorometric DENV NS2B/NS3 protease assay (Boc-Gly-Arg-Arg-AMC). Type of data set: biochemical. The note with it: [S] = 100 µM (Boc-Gly-Arg-Arg-AMC).

T2 sequence (P07711 114-333): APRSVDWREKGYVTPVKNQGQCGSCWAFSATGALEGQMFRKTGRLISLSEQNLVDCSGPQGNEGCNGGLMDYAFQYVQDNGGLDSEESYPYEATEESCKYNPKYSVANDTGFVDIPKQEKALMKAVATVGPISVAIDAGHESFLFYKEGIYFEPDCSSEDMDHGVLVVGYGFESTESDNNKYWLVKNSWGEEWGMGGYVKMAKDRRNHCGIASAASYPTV
T1 sequence (Q95PM0 entry or part of it): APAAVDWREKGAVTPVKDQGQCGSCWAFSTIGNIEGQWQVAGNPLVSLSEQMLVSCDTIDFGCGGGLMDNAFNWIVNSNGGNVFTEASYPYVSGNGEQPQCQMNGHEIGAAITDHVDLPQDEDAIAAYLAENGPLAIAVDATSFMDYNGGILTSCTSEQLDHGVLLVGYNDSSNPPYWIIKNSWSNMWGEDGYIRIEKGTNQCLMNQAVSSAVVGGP
T4 sequence (P29990 1346-1475): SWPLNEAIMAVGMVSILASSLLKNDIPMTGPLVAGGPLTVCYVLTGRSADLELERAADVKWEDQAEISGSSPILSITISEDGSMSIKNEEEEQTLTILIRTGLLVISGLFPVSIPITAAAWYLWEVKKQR
T4 sequence (P29990 1476-1653): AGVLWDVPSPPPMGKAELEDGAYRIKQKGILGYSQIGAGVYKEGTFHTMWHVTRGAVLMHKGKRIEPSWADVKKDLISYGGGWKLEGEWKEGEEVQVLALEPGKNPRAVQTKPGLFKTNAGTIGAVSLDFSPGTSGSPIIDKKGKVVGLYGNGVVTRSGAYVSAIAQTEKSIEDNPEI

As a reminder, the pKi is −log10 of the Ki, conventionally taken in molar units. As usually defined, the pEC50 is −log10 of the EC50, conventionally taken in molar units. For orientation: pIC50 means the negative decadic logarithm of the IC50, by convention in mol/L. A lower pIC50 goes with a large IC50. In the case of `CC(C)C[C@H](NC(=O)[C@H](Cc1ccccc1)NC1=C(C#N)C(=O)c2ccccc2C1=O)C(=O)OCc1ccccc1` [Compound 2], at rhodesain [1] (Trypanosoma brucei rhodesiense, rhodesain enzyme solution, pH 5.5, absorbance at 400 nm vs time, read-out: t1/2 of ester hydrolysis by rhodesain), the half-life at 250 µM amounted to 3.41 min. The “turnover curve of absorbance at 400 nm vs. time with rhodesain” value on rhodesain [1] (monitored for 2 h at 25 °C) is listed as “hyperbolic turnover curves”. For the same molecule, the “k3, cathepsin L” value on cathepsin L [2] (Method 1) amounted to 0.0148 s⁻¹. Moreover, at cathepsin L [2] (Method 1), the “k4, cathepsin L” value worked out at 0.0012 s⁻¹. Besides, the “half-life t1/2 of final complex, cathepsin L” value at cathepsin L [2] (calculated by 0.693/k4) is given as “around 10 min”. Besides, the negative logarithm of the Ki (pKi) was 7.27 at cathepsin L [2] (final complex, Dixon fit of vS vs [I], read-out: Cath. L Ki^* Method 2); 7.92 on cathepsin L [2] (final high-affinity complex, Ki/(1+k3/k4), read-out: Cath. L Ki^* Method 1); 6.52 at cathepsin L [2] (initial complex, Dixon fit of vi vs [I], read-out: Cath. L Ki Method 2); 6.80 on cathepsin L [2] (initial non-covalent complex, from kobs vs [I], read-out: Cath. L Ki Method 1); 7.48 at cathepsin L [2] (reversible, time-dependent inhibition, final high-affinity complex, mean of method 1 and method 2, read-out: Cath. L Ki^*); 5.72 at cathepsin B. For the same molecule, the negative-log Ki (pKi) at rhodesain [4] is 6.74. On cathepsin L [2] (second inhibition step, forward rate), the “Cath. L k3” value stood at 0.0148 s⁻¹. Further, the “Cath. L k4” value on cathepsin L [2] (second inhibition step, off-rate) stood at 0.0012 s⁻¹. Also, at cathepsin L [3], the “reactivation of enzyme activity after dilution, cathepsin L” value is “full reactivation; also recorded: nearly fully recovered”. The negative logarithm of the EC50 (pEC50) in data set [5] is 6.92. Further, the negative-log IC50 (pIC50) in data set [6] is 4.39.

Source of the values: article PMC7248907, “Naphthoquinones as Covalent Reversible Inhibitors of Cysteine Proteases—Studies on Inhibition Mechanism and Kinetics” (Molecules, 2020).
